# System: HT29 cells
# Assay: Inhibition of cell necrosis (CCK8 method), induced programmed necrosis of HT29 cells
# Assay type: cell-based
# Conditions: Homo sapiens, HT-29; rescue from necrosis induced by TNF-α 20 ng/mL, AT-406 1 μM, Z-VAD-FMK 20 μM; 16-20 hours; CCK-8, OD 450 nm
# Summary of the method: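 Rescue from programmed necrosis was scored by CCK-8 absorbance at 450 nm after 16-20 h of TNF-α (20 ng/mL), AT-406 (1 μM) and Z-VAD-FMK (20 μM) at 37 °C, 5% CO2. HT29 cells had received compound 30 min earlier across nine 4-fold dilutions (top 25000 nM final). IC50 came from % inhibition relative to uninduced and induced-only wells.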
row,Compound,IC50 [nM]
1,"COCCOc1nc(-c2ccnc(NC(=O)c3nnc(Cc4ccccc4)[nH]3)c2)ccc1C [Example 54, 5-benzyl-N-(6-(2-methoxyethoxy)-5-methyl-[2,4′-bipyridin]-2′-yl)-4H-1,2,4-triazole-3-carboxamide]",> 10000
2,"COc1ccc(C)c(-c2cncc(NC(=O)c3nnc(Cc4ccccc4)[nH]3)c2)c1 [Example 196, 5-benzyl-N-(5-(5-methoxy-2-methylphenyl)pyridin-3-yl)-4H-1,2,4-triazole-3-carboxamide]",> 10000
3,"O=C(Nc1cc(-c2cc(OCCCCCO)ccc2Cl)ccn1)c1nnc(Cc2ccccc2F)[nH]1 [Example 376, 5-(2-fluorobenzyl)-N-(4-(2-chloro-5-((5-hydroxypentyl)oxy)phenyl)pyridin-2-yl)-4H-1,2,4-triazole-3-carboxamide]",≤ 100
4,"Cc1ccc(OCCCC(C)(C)O)cc1-c1ccnc(NC(=O)c2nnc(Cc3ccc(F)cc3F)[nH]2)c1 [Example 201, 5-(2,4-difluorobenzyl)-N-(4-(5-((4-hydroxy-4-methylpentyl)oxy)-2-methylphenyl)pyridin-2-yl)-4H-1,2,4-triazole-3-carboxamide]",≤ 100
5,"O=C(Nc1cc(-c2cc(OCCC3CCOCC3)ccc2Cl)ccn1)c1nnc(Cc2ccccc2)[nH]1 [Example 403, 5-benzyl-N-(4-(2-chloro-5-(2-(tetrahydro-2H-pyran-4-yl)ethoxy)phenyl)pyridin-2-yl)-4H-1,2,4-triazole-3-carboxamide]",≤ 100
6,"COCCOc1cccc(C)c1-c1ccnc(NC(=O)c2nnc(Cc3ccccc3)[nH]2)c1 [Example 94, 5-benzyl-N-(4-(2-(2-methoxyethoxy)-6-methylphenyl)pyridin-2-yl)-4H-1,2,4-triazole-3-carboxamide]",1000 to 10000
7,"Cc1ccc(OCCO)cc1-c1ccnc(NC(=O)c2nnc(Cc3ccccc3)[nH]2)c1 [Example 125, 5-benzyl-N-(4-(5-(2-hydroxyethoxy)-2-methylphenyl)pyridin-2-yl)-4H-1,2,4-triazole-3-carboxamide]",100 to 1000
8,"COc1ccc(C(F)(F)F)cc1-c1ccnc(NC(=O)c2nnc(Cc3ccccc3)[nH]2)c1 [Example 19, 5-benzyl-N-(4-(2-methoxy-5-(trifluoromethyl)phenyl)pyridin-2-yl)-4H-1,2,4-triazole-3-carboxamide]",1000 to 10000
9,"CC(C)(O)CCCCOc1ccc(F)c(-c2ccnc(NC(=O)c3nnc(Cc4ccccc4F)[nH]3)c2)c1 [Example 500, N-(4-(2-fluoro-5-((5-hydroxyl-5-methylhexyl)oxy)phenyl)pyridin-2-yl)-5-(2-fluorobenzyl)-4H-1,2,4-triazole-3-carboxamide]",100 to 1000
10,"O=C(Nc1cc(-c2cc(OCCC3CCOCC3)ccc2F)ccn1)c1nnc(Cc2ccccc2F)[nH]1 [Example 316, N-(4-(2-fluoro-5-(2-(tetrahydro-2H-pyran-4-yl)ethoxy)phenyl)pyridin-2-yl)-5-(2-fluorobenzyl)-4H-1,2,4-triazole-3-carboxamide]",100 to 1000
11,"Cc1ccc(OCCCC(C)(C)O)cc1-c1ccnc(NC(=O)c2nnc(Cc3ccncc3)[nH]2)c1 [Example 221, N-(4-(5-((4-hydroxy-4-methylpentyl)oxy)-2-methylphenyl)pyridin-2-yl)-5-(pyridin-4-ylmethyl)-4H-1,2,4-triazole-3-carboxamide]",100 to 1000
12,"Cc1ccc(OCCCC#N)cc1-c1ccnc(NC(=O)c2nnc(Cc3ccccc3)[nH]2)c1 [Example 148, 5-benzyl-N-(4-(5-(3-cyanopropoxy)-2-methylphenyl)pyridin-2-yl)-4H-1,2,4-triazole-3-carboxamide]",≤ 100
13,"Cc1ccc(OCCCC(C)(C)O)cc1-c1ccnc(NC(=O)c2nnc(CC3CC4CCC3C4)[nH]2)c1 (stereo not drawn) [Example 179, 5-(bicyclo[2.2.1]heptan-2-ylmethyl)-N-(4-(5-((4-hydroxy-4-methylpentyl)oxy)-2-methylphenyl)pyridin-2-yl)-4H-1,2,4-triazole-3-carboxamide]",≤ 100
14,"Cc1ccc(OCCF)cc1-c1ccnc(NC(=O)c2nnc(Cc3ccccc3)[nH]2)c1 [Example 68, 5-benzyl-N-(4-(5-(2-fluoroethoxy)-2-methylphenyl)pyridin-2-yl)-4H-1,2,4-triazole-3-carboxamide]",100 to 1000
15,"O=C(Nc1cc(-c2cccc3c2CCCC3)ccn1)c1nnc(Cc2ccccc2)[nH]1 [Example 43, 5-benzyl-N-(4-(5,6,7,8-tetrahydronaphthalen-1-yl)pyridin-2-yl)-4H-1,2,4-triazole-3-carboxamide]",1000 to 10000
16,"Cc1ccc(OCCCOC(C)C)cc1-c1ccnc(NC(=O)c2nnc(Cc3ccccc3)[nH]2)c1 [Example 83, 5-benzyl-N-(4-(5-(3-isopropoxypropoxy)-2-methylphenyl)pyridin-2-yl)-4H-1,2,4-triazole-3-carboxamide]",≤ 100
17,"Cc1ccc(OCCC2CCCCO2)cc1-c1ccnc(NC(=O)c2nnc(Cc3ccccc3)[nH]2)c1 (stereo not drawn) [Example 227, 5-benzyl-N-(4-(2-methyl-5-(2-(tetrahydro-2H-pyran-2-yl)ethoxy)phenyl)pyridin-2-yl)-4H-1,2,4-triazole-3-carboxamide]",≤ 100
18,"CC(C)(O)CCCOc1ccc(Cl)c(-c2ccnc(NC(=O)c3nnc(Cc4cc(F)cc(Cl)c4)[nH]3)c2)c1 [Example 341, N-(4-(2-chloro-5-((4-hydroxy-4-methylpentyl)oxy)phenyl)pyridin-2-yl)-5-(3-chloro-5-fluorobenzyl)-4H-1,2,4-triazole-3-carboxamide]",100 to 1000
19,"O=C(Nc1cc(-c2cc(OCC3CCOCC3)ccc2Cl)ccn1)c1nnc(CC2CCCC2)[nH]1 [Example 401, N-(4-(2-chloro-5-((tetrahydro-2H-pyran-4-yl)methoxy)phenyl)pyridin-2-yl)-5-(cyclopentylmethyl)-4H-1,2,4-triazole-3-carboxamide]",≤ 100
20,"COc1ccc(-c2ccnc(NC(=O)c3nnc(Cc4ccccc4)[nH]3)c2)cc1 [Example 9, 5-benzyl-N-(4-(4-methoxyphenyl)pyridin-2-yl)-4H-1,2,4-triazole-3-carboxamide]",> 10000
21,"CC(C)(O)CCCOc1ccc(C(F)(F)F)c(-c2cc(NC(=O)c3nnc(CC4CCCC4)[nH]3)ncn2)c1 [Example 452, 5-(cyclopentylmethyl)-N-(6-(5-((4-hydroxy-4-methylpentyl)oxy)-2-(trifluoromethyl)phenyl)pyrimidin-4-yl)-4H-1,2,4-triazole-3-carboxamide]",≤ 100
22,"Cc1cc(C#N)ccc1-c1ccnc(NC(=O)c2nnc(Cc3ccccc3)[nH]2)c1 [Example 12, 5-benzyl-N-(4-(4-cyano-2-methylphenyl)pyridin-2-yl)-4H-1,2,4-triazole-3-carboxamide]",100 to 1000
23,"Cc1ccc(OCCCCC(C)(C)O)cc1-c1ccnc(NC(=O)c2nnc(Cc3ccccc3)[nH]2)c1 [Example 167, 5-benzyl-N-(4-(5-((5-hydroxyl-5-methylhexyl)oxy)-2-methylphenyl)pyridin-2-yl)-4H-1,2,4-triazole-3-carboxamide]",≤ 100
24,"O=C(Nc1cc(-c2cc(OCC3CCOCC3)ccc2C(F)(F)F)ncn1)c1nnc(Cc2ccccc2)[nH]1 [Example 454, 5-benzyl-N-(6-(5-((tetrahydro-2H-pyran-4-yl)methoxy)-2-(trifluoromethyl)phenyl)pyrimidin-4-yl)-4H-1,2,4-triazole-3-carboxamide]",≤ 100
